The values below come from US20090155881A1, “CELL-FREE PROTEIN SYNTHESIS METHOD AND CELL-FREE PROTEIN SYNTHESIS REACTION SOLUTION USING ADENOSINE 3',5'-BISPHOSPHATE” (priority 2007, published 2009).

The test has as its system mRNA. Description: mRNA degradation suppressing effect in the cell-free protein synthesis reaction solution (Transdirect insect cell); remaining mRNA detected by agarose electrophoresis and EtBr staining. It is filed as biochemical, Spodoptera frugiperda. The settings on record: for degradation suppressing effect: after 240 minutes. As to the method: Using Transdirect insect cell (SHIMADZU CORPORATION), each of the following reaction solutions was prepared in a scale of 50 μL. Transdirect insect cell is a cell-free protein synthesis reaction solution containing an extract from Sf21, and contains a potassium salt, a magnesium salt, adenosine triphosphate, guanosine triphosphate, creatine phosphate, creatine kinase, an amino acid component, a tRNA, a foreign mRNA, and a buffer as ingredients other than the extract derived from Sf21.
As the RNase inhibitor, an RNase inhibitor derived from a human placenta (TAKARA BIO) was used, and as the pAp, Adenosine 3′,5′-diphosphate sodium salt (SIGMA-ALDRICH) was used, and prepared as an aqueous solution of 100 mM. Each reaction solution was subjected to a translation reaction at 25° C.
For each reaction solution, reaction solutions after 0, 60, and 120 minutes from starting of a translation reaction were recovered. 10 μL of the recovered reaction solution was collected into 20 μL of TRIzol LS Reagent (Invitrogen), and the whole RNA was extracted. The extracted RNA was dissolved in 10 μL of pure water.
To each solution of extracted RNA, 4 μL of a loading buffer (Wako Pure Chemical Industries) was added, and the total was subjected to electrophoresis (a TAE buffer, 1% agarose gel). The RNA separated by electrophoresis was detected by EtBr (ethidium bromide) staining.
By the same steps as Steps 1 to 3 of Example 1, a translation reaction was conducted for the following reaction solutions.
As for Reaction Solution 6, pAp was added before the reaction so that the final concentration was 5 mM, and after 60 minutes from starting of the reaction, 2.5 μL of a 100 mM pAp aqueous solution prepared in step 3 was added. As a result, the pAp concentration of supplemented pAp excluding the pAp that was present from the initial stage of the reaction was 5 mM.
Steps 4 and 5 as same as those in Example 1 were conducted except that for each reaction solution, the reaction solution was recovered after 0, 120, 180, and 240 minutes from starting of the translation reaction.
In Reaction Solutions 7 and 8, a 4M aqueous LiCl solution was prepared for stock, and using the stock solution, the final concentration in the reaction solution was adjusted to 50 mM.
Steps 4 and 5 were conducted in the same manner as in Example 1 except that for each reaction solution, the reaction solution was recovered after 0, 180, and 240 minutes from starting of the translation reaction.

Regarding `Nc1ncnc2c1ncn2[C@@H]1O[C@H](COP(=O)(O)O)[C@@H](OP(=O)(O)O)[C@H]1O` [pAp, adenosine 3′,5′-bisphosphate], the degradation suppressing effect entry reads like this: (5 mM pAp plus supplementation of 5 mM pAp after 60 minutes (Reaction Solution 6)) “sustained”; (10 mM pAp, supplementation not conducted (Reaction Solution 5)) “sustained”. The “RNA degradation suppressing effect” value (5 mM pAp, supplementation not conducted (Reaction Solution 4), after 180 minutes) is reported as “lost with time”. Moreover, the “mRNA remaining (electrophoresis)” value (pAp 5 mM alone, no LiCl (lane 4), after 180 minutes) was “almost all the mRNA was degraded”. In addition, the “mRNA degradation suppressing effect” value (pAp final concentration 5 mM, no RNase inhibitor (Reaction Solution 4), reaction times 60 and 120 minutes, 25° C.) is “apparent degradation suppressing effect”.
Regarding `[Cl-].[Li+]` [LiCl, lithium chloride], the “mRNA remaining (electrophoresis)” value (LiCl 50 mM alone, no pAp (lane 7), after 180 minutes) was “almost all the mRNA was degraded”.

B1: RNase inhibitor: RNase inhibitor derived from a human placenta (TAKARA BIO) (protein, UniProt P13489 2-461, looked up)
Ribonuclease inhibitor: SLDIQSLDIQCEELSDARWAELLPLLQQCQVVRLDDCGLTEARCKDISSALRVNPALAELNLRSNELGDVGVHCVLQGLQTPSCKIQKLSLQNCCLTGAGCGVLSSTLRTLPTLQELHLSDNLLGDAGLQLLCEGLLDPQCRLEKLQLEYCSLSAASCEPLASVLRAKPDFKELTVSNNDINEAGVRVLCQGLKDSPCQLEALKLESCGVTSDNCRDLCGIVASKASLRELALGSNKLGDVGMAELCPGLLHPSSRLRTLWIWECGITAKGCGDLCRVLRAKESLKELSLAGNELGDEGARLLCETLLEPGCQLESLWVKSCSFTAACCSHFSSVLAQNRFLLELQISNNRLEDAGVRELCQGLGQPGSVLRVLWLADCDVSDSSCSSLAATLLANHSLRELDLSNNCLGDAGILQLVESVRQPGCLLEQLVLYDIYWSEEMEDRLQALEKDKPSLRVIS
As to B1, the “mRNA degradation suppressing effect” value (RNase inhibitor final concentration 1 U/μL, no pAp (Reaction Solution 3 vs Reaction Solution 2), 0, 60, 120 minutes) was “not observed”.
